Where two headings read alike, the source gives them in different places.
Tests used:
[1] = MTT cytotoxicity assay, MCF-7; design: cytotoxicity at 72 h: dose or concentration left out as unconfirmed; settings: human, MCF-7 cells
Method: (§1) MTT assay was used to measure the in vitro cytotoxicity of the isolated compounds. Human breast adenocarcinoma cell line (MCF-7), human liver hepatocellular carcinoma cell line (HepG2), and human cervical cancer cell line (HeLa) were cultured in Dulbecco’s modified Eagle’s medium (DMEM) and Roswell Park Memorial Institute medium (RPMI 1640), which was supplemented with 10% fetal bovine serum (FBS) at 37 °C in a humidified atmosphere of 5% CO2. The cells were cultured in 96-well plates for 24 h and then treated with test compounds at various concentrations (8–125 μM) for 72 h. After incubation for another 4 h with a 20 µL aliquot of the MTT [3-(4,5-dimethylthiazol-2-yl)-2,5-diphenyl tetrazolium bromide] solution (5 mg/mL in PBS), the medium was discarded, and 150 µL of DMSO was added to dissolve the produced formazan. The absorbance was measured at 490 nm and 570 nm using a microplate reader. Doxorubicin was used as a positive control. Each experiment was carried out in triplicate. The IC50 values were calculated using Graphpad Prism 5 software.

[2] = MTT cytotoxicity assay, HepG2; design: cytotoxicity at 72 h / Cytotoxicity (%I) HepG2: dose or concentration left out as unconfirmed; settings: human, HepG2 cells
Method: as §1

[3] = MTT cytotoxicity assay, HeLa; design: cytotoxicity at 72 h / Cytotoxicity (%I) HeLa: dose or concentration left out as unconfirmed; settings: human, HeLa cells
Method: as §1

[4] = MTT cytotoxicity assay, LO2; design: dose or concentration left out as unconfirmed; settings: human, LO2 normal liver cells
[5] = tested on: three human tumor cell lines (HepG2, MCF-7, and HeLa); assay: MTT cytotoxicity assay, summary over three tumor cell lines
[6] = tested on: human breast cancer cell line (MCF-7); assay: MTT cytotoxicity assay, MCF-7; design: cytotoxicity at 72 h: dose or concentration left out as unconfirmed; settings: MCF-7; 4 mg/mL; MTT
Method: as §1

[7] = tested on: human hepatocellular carcinoma cell line (HepG2); assay: MTT cytotoxicity assay, HepG2; design: cytotoxicity at 72 h / Cytotoxicity (%I) HepG2: dose or concentration left out as unconfirmed; settings: HepG2; MTT
Method: as §1

[8] = tested on: human cervical carcinoma cancer cell line (HeLa); assay: MTT cytotoxicity assay, HeLa; design: cytotoxicity at 72 h / Cytotoxicity (%I) HeLa: dose or concentration left out as unconfirmed; settings: HeLa; MTT
Method: as §1

[9] = tested on: normal human liver cell line (LO2); assay: MTT cytotoxicity assay, LO2; design: dose or concentration left out as unconfirmed; settings: LO2 normal liver cells; MTT
[10] = tested on: normal human liver cell line (LO2); design: dose or concentration left out as unconfirmed
[11] = tested on: human hepatocellular carcinoma cell line (HepG2); design: Cytotoxicity (%I) HepG2: dose or concentration left out as unconfirmed
Method: as §1

[12] = tested on: human cervical carcinoma cancer cell line (HeLa); design: Cytotoxicity (%I) HeLa: dose or concentration left out as unconfirmed
Method: as §1

[13] = tested on: human breast cancer cell line (MCF-7)
Method: as §1

Compound | cytotoxicity at 72 h [1] [%] | cytotoxicity at 72 h [2] [%] | cytotoxicity at 72 h [3] [%] | cytotoxicity at 72 h [4] [%] | further results
C=C1CCC2C(C)(C(=O)O)CCCC2(C)C1C=CC(C)=O [Compound 1, (4R,5S,9S,10R)-13-des-ethyl-13-oxolabda-8(17),11E-dien-19-oic acid] | 28.4 | 18.4 | 26.4 | 20.6 | –
C=C1CC[C@@H]2[C@](C)(CCC[C@]2(C)C(=O)O)[C@H]1C/C=C(/C)C=O [Compound 2, 15-nor-14-oxolabda-8(17),12Z-dien-19-oic acid] | 21.1 | 16.1 | 23.9 | 10.6 | –
CC(C)c1cc2c(cc1O)[C@@]1(C)CCCC(C)(C)[C@@H]1CC2=O [Compound 3, sugiol] | 9.2 | 35 | 12.3 | 26.6 | –
CC(C)c1cc2c(cc1O)C1(C)CCCC(C)(C)C1=C(O)C2=O (centres unmarked) [Compound 6, 6,12-dihydroxyabieta-5,8,11,13-tetraen-7-one] | 84 | 86.6 | 83.8 | 27.8 | cytotoxicity in words ([5]; HepG2, MCF-7 and HeLa, MTT): moderate cytotoxicity; IC50 ([5]; Homo sapiens, read-out: IC50 values, range over all three cell lines): 24.4 to 58.4 µM; IC50 at 72 h [1]: 58.4 ± 2.45 µM; IC50 at 72 h [2]: 48.7 ± 1.31 µM; IC50 at 72 h [3]: 24.4 ± 2.05 µM
O=c1ccc2ccc(O)cc2o1 [Compound 13, umbelliferone] | 18 | 32.7 | 3.6 | 26.6 | –
COc1cccc2c1C(=O)c1c(O)c3c(c(O)c1C2=O)C[C@@](O)(C(=O)CO)C[C@@H]3O[C@H]1C[C@H](N)[C@H](O)[C@H](C)O1 [Doxorubicin, reference compound] | 46.5 | 42.2 | 49.5 | 46.7 | IC50 at 72 h [1]: 3.44 ± 1.59 µM; IC50 at 72 h [2]: 3.18 ± 1.19 µM; IC50 at 72 h [3]: 3.64 ± 1.37 µM
helioxanthin [Compound 5] | – | – | – | – | Cytotoxicity (%I @ 4 mg/mL) MCF-7 [6]: 10.09%; Cytotoxicity (%I) HepG2 [7]: 0.11%; Cytotoxicity (%I) HeLa [8]: 0.22%; Cytotoxicity (%I) LO2 [9]: 9.05%
sempervirol [Compound 10] | – | – | – | – | Cytotoxicity (%I) LO2 [10]: 19.08%; cytotoxicity in words [5]: weaker activity; Cytotoxicity (%I) HepG2 [11]: 48.67%; IC50 [11]: 64.9 ± 2.64 µM; Cytotoxicity (%I) HeLa [12]: 63.4%; IC50 [12]: 56.9 ± 2.39 µM; Cytotoxicity (%I @ 4 mg/mL) MCF-7 [13]: 43.4%; IC50 [13]: 80 ± 1.2 µM

Reference: article PMC6514680, “Labdane and Abietane Diterpenoids from Juniperus oblonga and Their Cytotoxic Activity” (Molecules, 2019)
